Patent publication US9340590B2 (priority 2011, dated 2016)
Read-outs that look alike come from different tables or passages of the source. Positions of bridges follow the written chain, without caps; N, C: chain ends. Residues, ends and D or L forms follow the SMILES beside them.

How the values were obtained:
Experiment in all cases: cell-based
hNav1.5 = hNav1.5 (Homo sapiens, UniProt Q14524)
hNav1.3 = hNav1.3 (Homo sapiens, UniProt Q9NY46); details: IonWorks Quattro, read-out: IWQ Use Nav1.3
hNav1.7 = hNav1.7 (Homo sapiens, UniProt Q15858); assay type: cell-based
[1] = IonWorks Quattro, use-dependent, […], read-out: IWQ Use Nav1.5

Sequence of hNav1.3 (Q9NY46 whole entry, looked up): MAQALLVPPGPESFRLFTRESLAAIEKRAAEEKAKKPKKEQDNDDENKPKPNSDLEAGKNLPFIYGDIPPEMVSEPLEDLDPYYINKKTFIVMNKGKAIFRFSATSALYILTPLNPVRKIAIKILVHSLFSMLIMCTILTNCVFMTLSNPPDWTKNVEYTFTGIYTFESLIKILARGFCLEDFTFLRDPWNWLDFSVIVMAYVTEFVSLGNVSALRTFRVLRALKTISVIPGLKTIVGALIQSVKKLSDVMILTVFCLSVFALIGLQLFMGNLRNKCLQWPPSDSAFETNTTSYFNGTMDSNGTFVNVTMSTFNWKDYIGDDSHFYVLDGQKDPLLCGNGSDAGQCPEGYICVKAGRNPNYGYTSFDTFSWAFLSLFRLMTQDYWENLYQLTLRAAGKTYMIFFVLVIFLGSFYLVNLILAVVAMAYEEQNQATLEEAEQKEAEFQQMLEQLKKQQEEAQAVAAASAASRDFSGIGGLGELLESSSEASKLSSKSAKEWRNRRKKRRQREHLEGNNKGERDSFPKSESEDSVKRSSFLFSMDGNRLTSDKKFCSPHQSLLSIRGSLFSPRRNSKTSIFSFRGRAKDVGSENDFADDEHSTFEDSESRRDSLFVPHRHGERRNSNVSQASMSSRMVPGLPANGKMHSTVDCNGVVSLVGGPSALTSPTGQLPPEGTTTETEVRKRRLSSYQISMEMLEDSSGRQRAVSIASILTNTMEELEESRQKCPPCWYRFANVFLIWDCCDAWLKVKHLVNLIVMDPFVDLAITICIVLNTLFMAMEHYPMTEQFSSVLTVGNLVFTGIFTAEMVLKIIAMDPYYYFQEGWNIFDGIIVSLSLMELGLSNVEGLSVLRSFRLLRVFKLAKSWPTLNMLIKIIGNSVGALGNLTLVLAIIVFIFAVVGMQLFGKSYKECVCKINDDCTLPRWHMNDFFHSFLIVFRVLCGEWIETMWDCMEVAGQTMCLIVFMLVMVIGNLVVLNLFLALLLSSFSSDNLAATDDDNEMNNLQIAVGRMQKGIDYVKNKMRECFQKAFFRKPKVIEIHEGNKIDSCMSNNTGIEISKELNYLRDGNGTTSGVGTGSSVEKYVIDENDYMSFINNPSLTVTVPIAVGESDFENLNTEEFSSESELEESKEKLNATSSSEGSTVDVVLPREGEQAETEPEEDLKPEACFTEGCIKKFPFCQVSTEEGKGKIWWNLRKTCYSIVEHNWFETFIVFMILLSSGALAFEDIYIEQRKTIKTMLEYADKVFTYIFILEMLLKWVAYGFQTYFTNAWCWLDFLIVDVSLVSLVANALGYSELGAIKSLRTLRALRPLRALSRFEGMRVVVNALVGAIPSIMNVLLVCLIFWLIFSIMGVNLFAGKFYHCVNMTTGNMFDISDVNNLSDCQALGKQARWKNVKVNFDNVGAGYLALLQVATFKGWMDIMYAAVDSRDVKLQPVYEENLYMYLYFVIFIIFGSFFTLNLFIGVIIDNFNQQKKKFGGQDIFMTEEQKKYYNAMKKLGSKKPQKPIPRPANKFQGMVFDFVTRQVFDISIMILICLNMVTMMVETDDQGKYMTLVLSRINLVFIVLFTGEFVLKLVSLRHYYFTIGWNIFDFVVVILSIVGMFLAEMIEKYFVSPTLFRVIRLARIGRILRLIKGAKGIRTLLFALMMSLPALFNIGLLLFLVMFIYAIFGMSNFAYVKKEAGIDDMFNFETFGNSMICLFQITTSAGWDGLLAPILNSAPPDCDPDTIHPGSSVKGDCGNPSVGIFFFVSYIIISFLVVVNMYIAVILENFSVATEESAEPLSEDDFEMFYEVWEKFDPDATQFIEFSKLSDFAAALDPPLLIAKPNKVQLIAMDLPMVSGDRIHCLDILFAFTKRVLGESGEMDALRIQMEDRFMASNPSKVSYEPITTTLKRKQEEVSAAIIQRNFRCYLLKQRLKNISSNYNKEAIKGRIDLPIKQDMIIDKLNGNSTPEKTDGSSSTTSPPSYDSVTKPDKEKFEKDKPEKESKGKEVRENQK
Sequence of hNav1.5 (Q14524 whole entry, looked up): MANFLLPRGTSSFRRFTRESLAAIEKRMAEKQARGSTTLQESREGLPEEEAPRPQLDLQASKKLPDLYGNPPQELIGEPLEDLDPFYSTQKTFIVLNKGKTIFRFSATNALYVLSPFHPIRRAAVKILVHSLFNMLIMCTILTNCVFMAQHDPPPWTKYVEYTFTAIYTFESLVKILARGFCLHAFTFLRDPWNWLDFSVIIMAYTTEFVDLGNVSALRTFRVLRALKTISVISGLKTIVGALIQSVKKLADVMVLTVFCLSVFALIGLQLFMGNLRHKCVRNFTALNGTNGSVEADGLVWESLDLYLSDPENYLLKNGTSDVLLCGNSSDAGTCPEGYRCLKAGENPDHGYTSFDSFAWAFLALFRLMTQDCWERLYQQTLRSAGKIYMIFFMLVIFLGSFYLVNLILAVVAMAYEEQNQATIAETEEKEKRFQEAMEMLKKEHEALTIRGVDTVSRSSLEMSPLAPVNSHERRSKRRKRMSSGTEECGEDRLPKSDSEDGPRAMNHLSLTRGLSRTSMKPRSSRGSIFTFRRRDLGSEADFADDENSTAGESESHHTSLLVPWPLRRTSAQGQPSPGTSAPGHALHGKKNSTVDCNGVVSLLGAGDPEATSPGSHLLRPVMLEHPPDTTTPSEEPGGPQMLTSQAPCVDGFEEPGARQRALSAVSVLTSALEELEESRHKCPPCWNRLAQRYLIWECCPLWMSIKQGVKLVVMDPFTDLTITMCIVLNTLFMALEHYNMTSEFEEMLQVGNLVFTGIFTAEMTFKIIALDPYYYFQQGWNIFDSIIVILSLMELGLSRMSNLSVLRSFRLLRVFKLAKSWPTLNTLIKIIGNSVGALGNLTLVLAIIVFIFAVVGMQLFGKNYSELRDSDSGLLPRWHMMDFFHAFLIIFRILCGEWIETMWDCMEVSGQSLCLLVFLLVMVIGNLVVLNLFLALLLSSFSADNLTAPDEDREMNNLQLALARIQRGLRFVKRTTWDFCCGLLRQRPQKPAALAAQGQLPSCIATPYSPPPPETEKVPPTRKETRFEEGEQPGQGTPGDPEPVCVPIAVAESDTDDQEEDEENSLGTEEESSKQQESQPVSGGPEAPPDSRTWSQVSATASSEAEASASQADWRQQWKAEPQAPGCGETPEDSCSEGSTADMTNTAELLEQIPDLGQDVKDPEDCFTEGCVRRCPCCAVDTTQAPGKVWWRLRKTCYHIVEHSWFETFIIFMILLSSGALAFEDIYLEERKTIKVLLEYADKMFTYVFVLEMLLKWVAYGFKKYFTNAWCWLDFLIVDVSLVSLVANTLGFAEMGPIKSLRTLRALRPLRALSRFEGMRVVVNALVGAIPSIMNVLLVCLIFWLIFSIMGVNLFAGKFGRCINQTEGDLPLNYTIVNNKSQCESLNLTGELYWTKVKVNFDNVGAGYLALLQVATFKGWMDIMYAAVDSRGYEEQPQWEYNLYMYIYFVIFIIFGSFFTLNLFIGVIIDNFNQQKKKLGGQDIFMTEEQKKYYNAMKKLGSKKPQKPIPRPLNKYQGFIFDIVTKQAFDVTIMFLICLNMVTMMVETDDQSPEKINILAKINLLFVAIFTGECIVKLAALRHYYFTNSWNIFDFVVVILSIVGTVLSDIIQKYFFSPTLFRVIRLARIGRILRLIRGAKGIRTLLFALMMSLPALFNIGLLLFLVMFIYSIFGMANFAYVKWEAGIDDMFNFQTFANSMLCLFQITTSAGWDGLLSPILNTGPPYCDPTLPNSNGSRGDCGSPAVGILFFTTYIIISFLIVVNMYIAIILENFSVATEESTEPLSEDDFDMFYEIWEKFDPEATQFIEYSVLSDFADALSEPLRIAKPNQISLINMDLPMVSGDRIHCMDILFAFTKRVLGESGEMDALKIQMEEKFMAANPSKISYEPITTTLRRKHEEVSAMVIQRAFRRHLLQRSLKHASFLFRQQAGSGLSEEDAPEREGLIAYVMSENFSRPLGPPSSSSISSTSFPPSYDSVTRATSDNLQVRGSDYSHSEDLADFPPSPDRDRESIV

CC[C@H](C)[C@@H]1NC(=O)[C@@H]2CSSC[C@@H]3NC(=O)[C@H](C(C)C)NC(=O)[C@H](CC(C)C)NC(=O)[C@H](CC(N)=O)NC(=O)[C@@H]4CCCN4C(=O)[C@H](CCCNC(=N)N)NC(=O)[C@H](CSSC[C@H](NC(=O)[C@@H](N)CC(=O)O)C(=O)N[C@@H](CC(C)C)C(=O)NCC(=O)N[C@@H](Cc4ccccc4)C(=O)N[C@@H](CCSC)C(=O)N[C@@H](CCCNC(=N)N)C(=O)N[C@@H](CCCCN)C(=O)N2)NC(=O)[C@H](CSSC[C@@H](C(=O)N[C@@H](CCCCN)C(=O)N[C@@H](CCCCN)C(=O)N[C@H](C(=O)N[C@@H](Cc2ccccc2)C(N)=O)C(C)C)NC(=O)[C@H](Cc2c[nH]c4ccccc24)NC(=O)[C@H](CCCCN)NC(=O)[C@H](Cc2cnc[nH]2)NC(=O)[C@H]([C@@H](C)O)NC(=O)[C@H](CCCNC(=N)N)NC(=O)[C@H](CO)NC3=O)NC(=O)[C@H](CCCCN)NC(=O)[C@H](CC(=O)O)NC(=O)[C@H](CC(N)=O)NC(=O)[C@H](CC(=O)O)NC(=O)[C@@H]2CCCN2C1=O [compound 57] (H-DCLGFMRKCIPDNDKCCRPNLVCSRTHKWCKKVF-NH2; disulfide 2-17, 9-23, 16-30)
IC50 (hNav1.5; Table 25, IonWorks Quattro, use, […], read-out: IWQ Use Nav1.5): 10.9 µM | IC50 (hNav1.3; Table 25, use, […]): 4.19 µM | IC50 (hNav1.7; Table 25, IonWorks Quattro, use, […], read-out: IWQ Use Nav1.7): 4.96 µM

CC[C@H](C)[C@@H]1NC(=O)[C@@H]2CSSC[C@@H]3NC(=O)[C@H](C(C)C)NC(=O)[C@H](CC(C)C)NC(=O)[C@H](CC(N)=O)NC(=O)[C@@H]4CCCN4C(=O)[C@H](CCCNC(=N)N)NC(=O)[C@H](CSSC[C@H](NC(=O)[C@@H](N)CC(=O)O)C(=O)N[C@@H](CC(C)C)C(=O)NCC(=O)N[C@@H](Cc4ccccc4)C(=O)N[C@@H](CCSC)C(=O)N[C@@H](CCCNC(=N)N)C(=O)N[C@@H](CCCCN)C(=O)N2)NC(=O)[C@H](CSSC[C@@H](C(=O)N[C@@H](CCCCN)C(=O)N[C@@H](Cc2ccc(O)cc2)C(=O)N[C@@H](CCCCN)C(=O)N[C@@H](Cc2ccccc2)C(N)=O)NC(=O)[C@H](Cc2c[nH]c4ccccc24)NC(=O)[C@H](CCCCN)NC(=O)[C@H](Cc2cnc[nH]2)NC(=O)[C@H]([C@@H](C)O)NC(=O)[C@H](CCCNC(=N)N)NC(=O)[C@H](CO)NC3=O)NC(=O)[C@H](CCCCN)NC(=O)[C@H](CC(=O)O)NC(=O)[C@H](CC(N)=O)NC(=O)[C@H](CC(=O)O)NC(=O)[C@@H]2CCCN2C1=O [compound 58] (H-DCLGFMRKCIPDNDKCCRPNLVCSRTHKWCKYKF-NH2; disulfide 2-17, 9-23, 16-30)
IC50 (hNav1.5; Table 26, IonWorks Quattro, use, […], read-out: IWQ Use Nav1.5): 9.56 µM | IC50 (hNav1.3; Table 26, use, […]): 0.07 µM | IC50 (hNav1.7; Table 26, IonWorks Quattro, use, […], read-out: IWQ Use Nav1.7): 0.07 µM

CC[C@H](C)[C@@H]1NC(=O)[C@@H]2CSSC[C@@H]3NC(=O)[C@H](C(C)C)NC(=O)[C@H](CC(C)C)NC(=O)[C@H](CC(N)=O)NC(=O)[C@@H]4CCCN4C(=O)[C@H](CCCNC(=N)N)NC(=O)[C@H](CSSC[C@H](NC(=O)[C@@H](N)CC(=O)O)C(=O)N[C@@H](CC(C)C)C(=O)NCC(=O)N[C@@H](Cc4ccccc4)C(=O)N[C@@H](CCSC)C(=O)N[C@@H](CCCNC(=N)N)C(=O)N[C@@H](CCCCN)C(=O)N2)NC(=O)[C@H](CSSC[C@@H](C(=O)N[C@@H](CCCCN)C(=O)N[C@@H](Cc2ccc(O)cc2)C(=O)N[C@H](C(=O)N[C@@H](CCCCN)C(N)=O)C(C)C)NC(=O)[C@H](Cc2c[nH]c4ccccc24)NC(=O)[C@H](CCCCN)NC(=O)[C@H](Cc2cnc[nH]2)NC(=O)[C@H]([C@@H](C)O)NC(=O)[C@H](CCCNC(=N)N)NC(=O)[C@H](CO)NC3=O)NC(=O)[C@H](CCCCN)NC(=O)[C@H](CC(=O)O)NC(=O)[C@H](CC(N)=O)NC(=O)[C@H](CC(=O)O)NC(=O)[C@@H]2CCCN2C1=O [compound 59] (H-DCLGFMRKCIPDNDKCCRPNLVCSRTHKWCKYVK-NH2; disulfide 2-17, 9-23, 16-30)
IC50 (hNav1.5; [1]): 18.1 µM | IC50 (hNav1.3; use-dependent, […]): 7.74 µM | IC50 (hNav1.7; IonWorks Quattro, use-dependent, […], read-out: IWQ Use Nav1.7): 5.68 µM

CC[C@H](C)[C@@H]1NC(=O)[C@@H]2CSSC[C@@H]3NC(=O)[C@H](C(C)C)NC(=O)[C@H](CC(C)C)NC(=O)[C@H](CC(N)=O)NC(=O)[C@@H]4CCCN4C(=O)[C@H](CCCNC(=N)N)NC(=O)[C@H](CSSC[C@H](NC(=O)[C@@H](N)CC(=O)O)C(=O)N[C@@H](CC(C)C)C(=O)NCC(=O)N[C@@H](Cc4ccccc4)C(=O)N[C@@H](CCSC)C(=O)N[C@@H](CCCNC(=N)N)C(=O)N[C@@H](CCCCN)C(=O)N2)NC(=O)[C@H](CSSC[C@@H](C(=O)N[C@@H](CCCCN)C(=O)N[C@@H](Cc2ccc(O)cc2)C(=O)N[C@H](C(=O)N[C@@H](Cc2ccccc2)C(=O)N[C@@H](CCCCN)C(N)=O)C(C)C)NC(=O)[C@H](Cc2c[nH]c4ccccc24)NC(=O)[C@H](CCCCN)NC(=O)[C@H](Cc2c[nH]cn2)NC(=O)[C@H]([C@@H](C)O)NC(=O)[C@H](CCCNC(=N)N)NC(=O)[C@H](CO)NC3=O)NC(=O)[C@H](CCCCN)NC(=O)[C@H](CC(=O)O)NC(=O)[C@H](CC(N)=O)NC(=O)[C@H](CC(=O)O)NC(=O)[C@@H]2CCCN2C1=O [compound 60]
IC50 (hNav1.5; [1]): 12.5 µM | IC50 (hNav1.3; use-dependent, […]): 0.21 µM | IC50 (hNav1.7; IonWorks Quattro, use-dependent, […], read-out: IWQ Use Nav1.7 (μm)): 0.59 µM

CSCC[C@@H]1NC(=O)[C@H](Cc2ccccc2)NC(=O)CNC(=O)[C@H](CC(C)C)NC(=O)[C@@H](NC(=O)[C@@H](N)CC(=O)O)CSSC[C@@H]2NC(=O)[C@@H]3CSSC[C@@H](C(=O)N[C@@H](CCCCN)C(=O)N[C@@H](Cc4ccc(O)cc4)C(=O)N[C@H](C(=O)N[C@@H](Cc4ccccc4)C(N)=O)C(C)C)NC(=O)[C@H](Cc4c[nH]c5ccccc45)NC(=O)[C@H](CCCCN)NC(=O)[C@H](Cc4cnc[nH]4)NC(=O)[C@H]([C@@H](C)O)NC(=O)[C@H](CCCNC(=N)N)NC(=O)[C@H](CO)NC(=O)[C@H](CSSC[C@H](NC(=O)[C@H](CCCCN)NC(=O)[C@H](CCCNC(=N)N)NC1=O)C(=O)N[C@@H](CCCNC(=N)N)C(=O)N1CCC[C@H]1C(=O)N[C@@H](CC(=O)O)C(=O)N[C@@H](CC(N)=O)C(=O)N[C@@H](CC(=O)O)C(=O)N[C@@H](CCCCN)C(=O)N3)NC(=O)[C@H](C(C)C)NC(=O)[C@H](CC(C)C)NC(=O)[C@H](CC(N)=O)NC(=O)[C@@H]1CCCN1C(=O)[C@H](CCCNC(=N)N)NC2=O [compound 66] (H-DCLGFMRKCRPDNDKCCRPNLVCSRTHKWCKYVF-NH2; disulfide 2-17, 9-23, 16-30)
IC50 (hNav1.5; IonWorks Quattro, Use, read-out: IWQ Use Nav1.5): 15.2 µM | IC50 (hNav1.3; Use): 0.11 µM | IC50 (hNav1.7): 0.16 µM

CC[C@H](C)[C@@H]1NC(=O)[C@@H]2CSSC[C@@H]3NC(=O)[C@H](C(C)C)NC(=O)[C@H](CC(C)C)NC(=O)[C@H](CC(N)=O)NC(=O)[C@@H]4CCCN4C(=O)[C@H](CCCNC(=N)N)NC(=O)[C@H](CSSC[C@H](NC(=O)[C@@H](N)CC(=O)O)C(=O)N[C@@H](CC(C)C)C(=O)NCC(=O)N[C@@H](Cc4ccccc4)C(=O)N[C@@H](CCSC)C(=O)N[C@@H](CCCNC(=N)N)C(=O)N[C@@H](CCCCN)C(=O)N2)NC(=O)[C@H](CSSC[C@@H](C(=O)N[C@@H](CCCCN)C(=O)N[C@@H](Cc2ccc(O)cc2)C(=O)N[C@H](C(=O)N[C@@H](Cc2ccccc2)C(N)=O)C(C)C)NC(=O)[C@H](Cc2c[nH]c4ccccc24)NC(=O)[C@H](CCCCN)NC(=O)[C@H](Cc2cnc[nH]2)NC(=O)[C@H]([C@@H](C)O)NC(=O)[C@H](CCCNC(=N)N)NC(=O)[C@H](CO)NC3=O)NC(=O)[C@H](CCCNC(=N)N)NC(=O)[C@H](CC(=O)O)NC(=O)[C@H](CC(N)=O)NC(=O)[C@H](CC(=O)O)NC(=O)[C@@H]2CCCN2C1=O [compound 68] (H-DCLGFMRKCIPDNDRCCRPNLVCSRTHKWCKYVF-NH2; disulfide 2-17, 9-23, 16-30)
IC50 (hNav1.5; IWQ Use Nav1.5 (μM)): 18.1 µM | IC50 (hNav1.3; Use): 0.14 µM | IC50 (hNav1.7; IonWorks Quattro, Use, read-out: IWQ Use Nav1.7): 0.2 µM

CC[C@H](C)[C@@H]1NC(=O)[C@@H]2CSSC[C@@H]3NC(=O)[C@H](C(C)C)NC(=O)[C@H](CC(C)C)NC(=O)[C@H](CC(N)=O)NC(=O)[C@@H]4CCCN4C(=O)[C@H](CCCNC(=N)N)NC(=O)[C@H](CSSC[C@H](NC(=O)[C@@H](N)CC(=O)O)C(=O)N[C@@H](CC(C)C)C(=O)NCC(=O)N[C@@H](Cc4ccccc4)C(=O)N[C@@H](CCSC)C(=O)N[C@@H](CCCNC(=N)N)C(=O)N[C@@H](CCCCN)C(=O)N2)NC(=O)[C@H](CSSC[C@@H](C(=O)N[C@@H](CCCCN)C(=O)N[C@@H](Cc2ccc(O)cc2)C(=O)N[C@H](C(=O)N[C@@H](Cc2ccccc2)C(N)=O)C(C)C)NC(=O)[C@H](Cc2c[nH]c4ccccc24)NC(=O)[C@H](CCCCN)NC(=O)[C@H](Cc2cnc[nH]2)NC(=O)[C@H](CCCNC(=N)N)NC(=O)[C@H](CCCNC(=N)N)NC(=O)[C@H](CO)NC3=O)NC(=O)[C@H](CCCCN)NC(=O)[C@H](CC(=O)O)NC(=O)[C@H](CC(N)=O)NC(=O)[C@H](CC(=O)O)NC(=O)[C@@H]2CCCN2C1=O [compound 70] (H-DCLGFMRKCIPDNDKCCRPNLVCSRRHKWCKYVF-NH2; disulfide 2-17, 9-23, 16-30)
IC50 (hNav1.5; IWQ Use Nav1.5 (μM)): 3.06 µM | IC50 (hNav1.3; Table 22, use, […]): 0.008 µM | IC50 (hNav1.7; Table 22, IonWorks Quattro, use, […], read-out: IWQ Use Nav1.7): 0.03 µM
